What follows are compounds tested against Human recombinant carboxy-terminal his-tagged LDHA (amino acids 2-332) (Homo sapiens, UniProt P00338) (assay: LDHA enzyme inhibition assay (NADH fluorescence)). Settings: LDHA IC50 (μM), 1 nM LDHA, NADH and pyruvate, stereochemistry of tested sample given.
With `O=C1CC(c2ccsc2)(c2cccc(OCCN3CCCC3=O)n2)NC(=O)C1Sc1ccccc1Cl` (stereo not shown) [Example 189, 3-(2-chlorophenyl)sulfanyl-6-[6-[2-(2-oxopyrrolidin-1-yl)ethoxy]-2-pyridyl]-6-(3-thienyl)piperidine-2,4-dione] the IC50 was 0.15 µM. For `O=C1CC(c2ccsc2)(c2cccc(Oc3ccccc3Br)n2)NC(=O)C1Sc1ccccc1Cl` (single isomer, unassigned) [Example 197, 6-[6-(2-bromophenoxy)-2-pyridyl]-3-(2-chlorophenyl) sulfanyl-6-(3-thienyl) piperidine-2,4-dione], the IC50 was 0.01 µM. For `CCC(Oc1cccc(C2(c3ccsc3)CC(=O)C(Sc3ccccc3Cl)C(=O)N2)n1)c1ccc(F)cc1` (stereo not shown) [Example 305], the IC50 was 0.025 µM. With `CC1(C)OCC(CCOc2cccc(C3(c4ccsc4)CC(=O)C(Sc4ccccc4Cl)C(=O)N3)n2)O1` (stereo not shown) [Example 191, 3-(2-chlorophenyl)sulfanyl-6-[6-[2-(2,2-dimethyl-1,3-dioxolan-4-yl)ethoxy]-2-pyridyl]-6-(3-thienyl) piperidine-2,4-dione] the IC50 was 0.158 µM. `O=C1CC(c2ccsc2)(c2cccc(Cc3ccc(F)cc3)n2)NC(=O)C1Sc1ccccc1Cl` (stereo not shown) [Example 257, 3-((2--chlorophenyl)thio)-6-(6-(4-fluorobenzyl)pyridin-2-yl)-6-(thiophen-3-yl)piperidine-2,4-dione] gave an IC50 of 0.016 µM. Work on `O=C1CC(c2ccsc2)(c2cccc(OCC(F)(F)F)n2)NC(=O)C1Sc1ccccc1Cl` (single isomer, unassigned) [Example 86, 3-(2-chlorophenyl)sulfanyl-6-(3-thienyl)-6-[6-(2,2,2-trifluoroethoxy)-2-pyridyl]piperidine-2,4-dione] yielded an IC50 of 0.022 µM. Compound `O=C1CC(c2ccsc2)(c2cccc(Oc3cccc4[nH]ncc34)n2)NC(=O)C1Sc1ccccc1Cl` (stereo not shown) [Example 103, 3-(2-chlorophenyl)sulfanyl-6-[6-(1H-indazol-4-yloxy)-2-pyridyl]-6-(3-thienyl) piperidine-2,4-dione] has an IC50 of 0.141 µM. In the case of `CN1C(=O)C(Sc2ccccc2Cl)C(=O)CC1(c1ccsc1)c1ccccc1F` (stereo not shown) [Example 13, 3-(2-chlorophenyl)sulfanyl-6-(2-fluorophenyl)-1-methyl-6-(3-thienyl)piperidine-2,4-dione], the IC50 is reported as 0.058 µM. Work on `O=C1CC(c2ccsc2)(c2cccc(Sc3ccc(F)cc3)n2)NC(=O)C1Sc1ccccc1Cl` (single isomer, unassigned) [Example 198, 3-(2-chlorophenyl)sulfanyl-6-[6-(4-fluorophenyl)sulfanyl-2-pyridyl]-6-(3-thienyl)piperidine-2,4-dione] yielded an IC50 of 0.177 µM. `O=C1CC(c2ccsc2)(c2cccc(OCCCC(F)(F)F)n2)NC(=O)C1Sc1ccccc1Cl` (single isomer, unassigned) [Example 148, 3-(2-chlorophenyl)sulfanyl-6-(3-thienyl)-6-[6-(4,4,4-trifluorobutoxy)-2-pyridyl]piperidine-2,4-dione] gave an IC50 of 0.014 µM. `COCCCOc1cccc(C2(c3ccsc3)CC(=O)C(Sc3ccccc3Cl)C(=O)N2)n1` (single isomer, unassigned) [Example 201, 3-(2-chlorophenyl)sulfanyl-6-[6-(3-methoxypropoxy)-2-pyridyl]-6-(3-thienyl) piperidine-2,4-dione] gave an IC50 of 0.037 µM. With `O=C1CC(c2ccsc2)(c2cccc(NCCC3CC3)n2)NC(=O)C1Sc1ccccc1Cl` (stereo not shown) [Example 174, 3-(2-chlorophenyl)sulfanyl-6-[6-(2-cyclopropyl-ethylamino)-2-pyridyl]-6-(3-thienyl)piperidine-2,4-dione] the IC50 was 0.068 µM. Compound `Cc1cc(Nc2cccc([C@@]3(c4ccsc4)CC(=O)C(Sc4ccccc4Cl)C(=O)N3)n2)cnc1F` (stereo partly drawn) [Example 335, (6S)-3-(2-chlorophenyl) sulfanyl-6-[6-[(6-fluoro-5-methyl-3-pyridyl)amino]-2-pyridyl]-6-(3-thienyl) piperidine-2,4-dione] has an IC50 of 0.002 µM. With `CC(Oc1cccc(C2(c3ccsc3)CC(=O)C(Sc3ccccc3Cl)C(=O)N2)n1)C1CC1` (single isomer, unassigned) [Example 184, 3-(2-chlorophenyl)sulfanyl-6-[6-(1-cyclopropylethoxy)-2-pyridyl]-6-(3-thienyl) piperidine-2,4-dione] the IC50 was 0.002 µM. `O=C1CC(c2ccsc2)(c2cccc(CCc3ccc(F)cc3)n2)NC(=O)C1Sc1ccccc1Cl` (single isomer, unassigned) [Example 293, 3-((2-chlorophenyl)thio)-6-(6-(4-fluorophenethyl)pyridin-2-yl)-6-(thiophen-3-yl)piperidine-2,4-dione] showed an IC50 of 0.091 µM. For `CC(Nc1cccc(C2(c3ccsc3)CC(=O)C(Sc3ccccc3Cl)C(=O)N2)n1)C1CC1` (stereo not shown) [Example 332], the IC50 was 0.168 µM. For `O=C1CC(c2ccsc2)(c2cccc(Oc3cncnc3)n2)NC(=O)C1Sc1ccccc1Cl` (stereo not shown) [Example 54, 3-(2-chlorophenyl)sulfanyl-6-(6-pyrimidin-5-yloxy-2-pyridyl)-6-(3-thienyl)piperidine-2,4-dione], the IC50 was 0.201 µM. Work on `O=C1CC(c2ccsc2)(c2cccc(Oc3ccc(F)c(Cl)c3)n2)NC(=O)C1Sc1ccccc1Cl` (single isomer, unassigned) [Example 83, 6-(6-(3-chloro-4-fluoro-phenoxy)pyridin-2-yl)-3-((2-chlorophenyl)thio)-6-(thiophen-3-yl) piperidine-2,4-dione] yielded an IC50 of 0.013 µM. `CN1C(=O)C(Sc2ccccc2Cl)C(=O)CC1(c1ccsc1)c1cccc(Nc2ccc(F)cc2)n1` (stereo not shown) [Example 11, 3-(2-chlorophenyl)sulfanyl-6-[6-(4-fluoroanilino)-2-pyridyl]-1-methyl-6-(3-thienyl)piperidine-2,4-dione] gave an IC50 of 0.002 µM. For `O=C1CC(c2ccsc2)(c2cccc(N3CC(C4CCOCC4)C3)n2)NC(=O)C1Sc1ccccc1Cl` (stereo not shown) [Example 240, 3-(2-chlorophenyl)sulfanyl-6-[6-(3-tetrahydropyran-4-ylazetidin-1-yl)-2-pyridyl]-6-(3-thienyl) piperidine-2,4-dione], the IC50 was 0.003 µM. `O=C1CC(c2ccsc2)(c2cccc(Oc3ccc(F)c(Br)c3)n2)NC(=O)C1Sc1ccccc1Cl` (single isomer, unassigned) [Example 122, 6-[6-(3-bromo-4-fluoro-phenoxy)-2-pyridyl]-3-(2-chlorophenyl)sulfanyl-6-(3-thienyl)piperidine-2,4-dione] gave an IC50 of 0.022 µM. In the case of `COc1cc(F)cc(Cc2cccc(C3(c4ccsc4)CC(=O)C(Sc4ccccc4Cl)C(=O)N3)n2)c1` (single isomer, unassigned) [Example 171, 3-(2-chlorophenyl)sulfanyl-6-[6-[(3-fluoro-5-methoxy-phenyl)methyl]-2-pyridyl]-6-(3-thienyl) piperidine-2,4-dione], the IC50 is reported as 0.101 µM. `COc1cc(F)ccc1Oc1cccc(C2(c3ccsc3)CC(=O)C(Sc3ccccc3Cl)C(=O)N2)n1` (stereo not shown) [Example 334, 3-(2-chlorophenyl)sulfanyl-6-[6-(4-fluoro-2-methoxy-phenoxy)-2-pyridyl]-6-(3-thienyl)piperidine-2,4-dione] showed an IC50 of 0.739 µM. In the case of `O=C1CC(c2ccc(C3=CCCCC3)cc2)(c2ccsc2)NC(=O)C1Sc1ccccc1Cl` (stereo not shown) [Example 8, 3-(2-chlorophenyl)sulfanyl-6-[4-(cyclohexen-1-yl)phenyl]-6-(3-thienyl)piperidine-2,4-dione], the IC50 is reported as 0.004 µM. Work on `O=C1CC(c2ccsc2)(c2cccc(Oc3cccc(F)c3)n2)NC(=O)C1Sc1ccccc1Cl` (single isomer, unassigned) [Example 79, 3-(2-chlorophenyl)sulfanyl-6-[6-(3-fluorophenoxy)-2-pyridyl]-6-(3-thienyl) piperidine-2,4-dione] yielded an IC50 of 0.199 µM. For `O=C1CC(c2ccsc2)(c2cccc(OCC3CCOCC3)n2)NC(=O)C1Sc1ccccc1Cl` (single isomer, unassigned) [Example 187, 3-(2-chlorophenyl)sulfanyl-6-[6-(tetrahydropyran-4-ylmethoxy)-2-pyridyl]-6-(3-thienyl)piperidine-2,4-dione], the IC50 was 0.025 µM. Compound `O=C1CC(c2ccsc2)(c2cccc(OCC3CC3)n2)NC(=O)C1Sc1ccccc1Cl` (single isomer, unassigned) [Example 84, 3-(2-chlorophenyl)sulfanyl-6-[6-(cyclopropyl-methoxy)-2-pyridyl]-6-(3-thienyl)piperidine-2,4-dione] has an IC50 of 0.008 µM. `O=C1CC(c2ccsc2)(c2cccc(Nc3ccc(F)cc3)n2)NC(=O)C1Oc1ccccc1Cl` (stereo not shown) [Example 295, 3-(2-chlorophenoxy)-6-[6-(4-fluoroanilino)-2-pyridyl]-6-(3-thienyl)piperidine-2,4-dione] gave an IC50 of 0.081 µM. For `O=C1CC(c2ccsc2)(c2cccc(Oc3cccc(F)c3F)n2)NC(=O)C1Sc1ccccc1Cl` (stereo not shown) [Example 53, 3-(2-chlorophenyl)sulfanyl-6-[6-(2,3-difluoro-phenoxy)-2-pyridyl]-6-(3-thienyl)piperidine-2,4-dione], the IC50 was 0.011 µM. In the case of `O=C1CC(c2ccsc2)(c2ccc3ccccc3c2)NC(=O)C1Sc1ccccc1Cl` (stereo not shown) [Example 32, 3-(2-chlorophenyl)sulfanyl-6-(2-naphthyl)-6-(3-thienyl)piperidine-2,4-dione], the IC50 is reported as 0.01 µM. `O=C1CC(c2ccsc2)(c2cccc(Oc3ccc(F)c(Cl)c3)n2)NC(=O)C1Sc1ccccc1Cl` (single isomer, unassigned) [Example 112, 6-(6-(3-chloro-4-fluoro-phenoxy)pyridin-2-yl)-3-((2-chlorophenyl)thio)-6-(thiophen-3-yl) piperidine-2,4-dione] showed an IC50 of 0.01 µM. `O=C1CC(c2ccsc2)(c2cccc(OCc3ccc(F)cc3)n2)NC(=O)C1Sc1ccccc1Cl` (single isomer, unassigned) [Example 298, 3-((2-chlorophenyl)thio)-6-(6-((4-fluorobenzyl)oxy)pyridin-2-yl)-6-(thiophen-3-yl)piperidine-2,4-dione] showed an IC50 of 0.063 µM. `O=C1CC(c2ccsc2)(c2cccc(OCC3CCCC3)n2)NC(=O)C1Sc1ccccc1Cl` (single isomer, unassigned) [Example 252, 3-(2-chlorophenyl)sulfanyl-6-[6-(cyclopentyl-methoxy)-2-pyridyl]-6-(3-thienyl)pipereidine-2,4-dione] was tested, and the IC50 was 0.079 µM. `O=C1CC(c2ccsc2)(c2cccc(OC3CCCC3)n2)NC(=O)C1Sc1ccccc1Cl` (stereo not shown) [Example 48, 3-((2-chlorophenyi)lliio)-6-(6-(cyclopentyloxy)pyridin-2-yl)-6-(thiophen-3-yl)piperidine-2 .4-dione] was tested, and the IC50 was 0.052 µM.

Reference: US20170001990A1 (Genentech, Inc., priority 2014, published 2017)
